Results reported in paper PMC6995562, “Evaluating Iso-Mukaadial Acetate and Ursolic Acid Acetate as Plasmodium falciparum Hypoxanthine-Guanine-Xanthine Phosphoribosyltransferase Inhibitors” (Biomolecules, 2019).
Read-outs that look alike come from different tables or passages of the source.

Biological target: T1, Plasmodium falciparum hypoxanthine-guanine-xanthine phosphoribosyltransferase (PfHGXPRT) (Plasmodium falciparum, UniProt Q8IJS1)
T1 construct: gene PF3D7_1012400; recombinant, N-terminal His6 tag (pET28-a), expressed in E. coli BL21 (DE3)
Test: microscale thermophoresis (MST) with labelled His-tagged protein; UV-Vis spectral change
Type: binding

T1 sequence (Q8IJS1 entry or part of it): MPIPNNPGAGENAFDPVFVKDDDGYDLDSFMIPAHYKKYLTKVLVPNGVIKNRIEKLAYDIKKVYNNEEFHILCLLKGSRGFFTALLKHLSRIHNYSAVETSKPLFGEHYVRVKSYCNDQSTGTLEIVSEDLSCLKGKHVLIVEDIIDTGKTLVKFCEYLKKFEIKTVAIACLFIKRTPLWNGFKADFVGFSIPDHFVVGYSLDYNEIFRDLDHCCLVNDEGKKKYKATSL

Compound	Kd [µM]	Kd (read-out: Kd) [µM]
CC(=O)O[C@H]1CC[C@]2(C)[C@H]3CC=C4[C@@H]5[C@@H](C)[C@H](C)CC[C@]5(C(=O)O)CC[C@@]4(C)[C@]3(C)CC[C@H]2C1(C)C [UAA, ursolic acid acetate]	2.84	
iso-mukaadial acetate [IMA]		0.0833
